Results taken from patent US11547681B2, “N-acylethanolamide derivatives and uses thereof” (ELIEM THERAPEUTICS, INC., priority 2016, dated 2023).
“Also recorded” adds a separate entry of the source. One block for each molecule: values may come before it.

What was measured:
[1] = Stability of PEA-prodrug in Sprague-Dawley rat plasma and acidified rat plasma (90 minutes, ice or RT); format: in vitro ADME; details: 1 μg/mL
Experimental: The stability of the PEA-prodrug I-9 was assessed in Sprague-Dawley rat plasma containing sodium heparin as the anticoagulant, and in acidified rat plasma containing citric acid and formic acid. The acidified plasma was prepared by collecting Sprague-Dawley rat […] over sodium heparin and adding 100 μL of 0.5 M citric acid per mL of blood. The blood was centrifuged to generate plasma, and then 100 μL of 10% formic acid was added per mL of plasma.
PEA-prodrug was added to each matrix to a final concentration of 1 μg/mL. Triplicate aliquots (50 μL) were immediately collected and added to 150 μL of acetonitrile containing internal standard. The remaining plasma aliquots were split equally. One aliquot was allowed to stand at room temperature while the second was placed on ice. After ninety minutes, triplicate aliquots of each sample were collected and added to acetonitrile. The samples were centrifuged at 13000 rpm for ten minutes, and the resulting supernatant was analyzed using the developed LC-MS/MS method. The peak area response ratios (PARR) of the analyte and internal standard from the incubated samples were then compared to the initial sample to determine the percent PEA prodrug remaining.

[2] = Simulated gastric fluid (SGF) stability, with and without pepsin; format: in vitro ADME; details: pH 1.2, 2 μM
Experimental: Studies were carried out in simulated gastric fluid (SGF). SGF was prepared by dissolving 2.0 g of NaCl and 3.2 g of purified pepsin (derived from porcine stomach mucosa) in 7 mL of 10 N HCl and sufficient water to make 1000 mL. The pH was adjusted to pH 1.2. Control experiments were also run without the addition of pepsin to the matrix. The test article was added into the SGF at 37° C. at a final concentration of 2 μM, and incubated in a shaking water bath at 37° C. Individual tubes were dosed for each time point (0, 15, 30, 60, and 120 minutes). At the appropriate time, 500 μL of ice-cold acetonitrile containing 0.1% formic acid and internal standard was added to a single tube. The starting time of each tube was staggered so that all timepoints finished simultaneously. The samples were then mixed and centrifuged. Calibration standards were prepared in matched matrix. […] Analytical conditions are outlined in Appendix 4-1.

[3] = as above; format: in vitro ADME; details: for Concentration of analyte I-9: dosed I-9 2 μM
[4] = PEA levels in New Zealand White rabbit plasma samples after oral administration; format: in vivo; details: individual rabbits, predose
[5] = as above; format: in vivo; details: individual rabbits; Group 3, 32 mg/kg/day; total PEA, ~5 h after morning dosing; listed as PEA-prodrug
From the text: The present Example describes PEA levels observed in rabbit plasma samples after oral administration of compound(s) provided herein. Blood samples were taken approximately five hours after the morning dosing.
Plasma samples from the current study were not treated to prolong the post-collection stability of the prodrug. Instead, all samples were allowed to stand, thawed and untreated, at room temperature for four hours prior to extraction and analysis. This strategy allowed for any remaining prodrug in the sample to convert to PEA. All reported concentrations are total PEA in the sample.
Seventy-nine New Zealand White rabbit plasma samples were analyzed with a previously developed LC-MS/MS method for the detection of palmitoylethanolamide (PEA). A total of 79 plasma samples were received for analysis. All samples were received frozen in good condition. Samples were stored at −80° C. until analysis.
An LC-MS/MS method for the determination of PEA in plasma was used to quantify samples in this study. See, e.g., Example 3. Study samples were extracted using the methods described in Examples 3-5.

[6] = Microsome/S9 fraction control (reaction mixture without microsomal proteins); format: in vitro ADME; details: for Concentration of analyte I-9: dosed I-9 2 μM
Experimental: As a control for the liver microsome and intestinal S9 fraction studies, additional experiments were run in reaction mixture, with the exclusion of microsomal proteins. The reaction mixture was prepared as described below. […] Individual tubes were dosed for each time point (0, 10, 20, 30, and 60 minutes). At the appropriate time, 500 μL of ice-cold acetonitrile containing 0.1% formic acid and internal standard was added to a single tube. The starting time of each tube was staggered so that all timepoints finished simultaneously. […] Calibration standards were prepared in matched matrix. […] Analytical conditions are outlined in Appendix 4-1.

[7] = tested on: Sprague Dawley rats, carrageenan-induced thermal hyperalgesia; assay: Carrageenan-induced inflammatory model, thermal hyperalgesia testing; format: in vivo, Sprague Dawley rat
Experimental: Sixty male Sprague Dawley rats were used in this study. Baseline thermal hyperalgesia thresholds were determined on day -1; animals were divided into 6 groups based on baseline thermal hyperalgesia thresholds. On day 0, animals received an oral dose of vehicle or I-16. Approximately 30 minutes after dosing the animals received an intra-plantar injection of 2% carrageenan solution. The animals were assessed for thermal hyperalgesia approximately 4 and approximately 24 hours after carrageenan injection.
Thermal hyperalgesia was assessed at baseline (prior to dosing with either vehicle or I-16), 4 hours, and 24 hours post-carrageenan injection.
Mean±SEM ipsilateral paw withdrawal latencies following carrageenan injection in vehicle and I-16 treated animals during the pharmacological assessment period (day 0).

% Remaining ([1]; acidified rat plasma (citric and formic acid), RT): 96.0%
% Remaining ([1]; acidified rat plasma (citric and formic acid), ice): 107%
% Remaining ([1]; rat plasma (sodium heparin), RT): 0.203%
% Remaining ([1]; rat plasma (sodium heparin), ice): 73.4%
% Remaining of Initial (n = 1) ([2]; SGF w/o pepsin, 30 min): 84%
% Remaining of Initial (n = 1) ([2]; SGF w/o pepsin, 120 min): 71%
% Remaining of Initial (n = 1) ([2]; SGF w/pepsin, 0 min): 100%
% Remaining of Initial (n = 1) ([2]; SGF w/pepsin, 15 min): 95%
% Remaining of Initial (n = 1) ([2]; SGF w/pepsin, 60 min): 92%
half-life at 2 μM ([2]; simulated gastric fluid without pepsin, SGF w/o pepsin): > 2 h
% Remaining of Initial (n = 1) ([3]; SGF w/o pepsin, pH 1.2, 2 μM, 0 min): 100%
% Remaining of Initial (n = 1) ([3]; SGF w/o pepsin, pH 1.2, 2 μM, 15 min): 93%
% Remaining of Initial (n = 1) ([3]; SGF w/o pepsin, pH 1.2, 2 μM, 60 min): 72%
% Remaining of Initial (n = 1) ([3]; SGF w/pepsin, pH 1.2, 2 μM, 30 min): 80%
% Remaining of Initial (n = 1) ([3]; SGF w/pepsin, pH 1.2, 2 μM, 120 min): 86%
Concentration of analyte I-9 ([3]; Matrix 'Human', 0 min): 1520 nM
Concentration of analyte I-9 ([3]; Matrix 'Human', head 10 min): 1450 nM
Concentration of analyte I-9 ([3]; Matrix 'Human', head 20 min): 1210 nM
Concentration of analyte I-9 ([3]; Matrix 'Human', head 30 min): 1400 nM
Concentration of analyte I-9 ([3]; Matrix 'Human', head 60 min): 1310 nM
Concentration of analyte I-9 ([3]; Matrix 'Rat', 0 min): 2070 nM
Concentration of analyte I-9 ([3]; Matrix 'Rat', head 10 min): 1930 nM
Concentration of analyte I-9 ([3]; Matrix 'Rat', head 20 min): 1740 nM
Concentration of analyte I-9 ([3]; Matrix 'Rat', head 30 min): 1490 nM
Concentration of analyte I-9 ([3]; Matrix 'Rat', head 60 min): 1480 nM
half-life at 2 μM ([3]; pig, simulated gastric fluid with pepsin, SGF w/pepsin, pH 1.2, 2 μM): > 2 h
Concentration of analyte I-9 ([6]; 0 min): 2240 nM
Concentration of analyte I-9 ([6]; 10 min): 1470 nM
Concentration of analyte I-9 ([6]; 20 min): 1720 nM
Concentration of analyte I-9 ([6]; 30 min): 1500 nM
Concentration of analyte I-9 ([6]; 60 min): 1380 nM
half-life at 2 μM ([6]; microsome/S9 reaction mixture without microsomal proteins, no microsomal proteins, pH 7.4, 2 μM): > 1 h
% Remaining of Initial (n = 1) ([6]; no microsomal proteins, pH 7.4, 2 μM, 0 min): 100%
% Remaining of Initial (n = 1) ([6]; no microsomal proteins, pH 7.4, 2 μM, 10 min): 66%
% Remaining of Initial (n = 1) ([6]; no microsomal proteins, pH 7.4, 2 μM, 20 min): 77%
% Remaining of Initial (n = 1) ([6]; no microsomal proteins, pH 7.4, 2 μM, 30 min): 67%
% Remaining of Initial (n = 1) ([6]; no microsomal proteins, pH 7.4, 2 μM, 60 min): 62%
SMILES: CCCCCCCCCCCCCCCC(=O)NCCOC(=O)CCC(=O)OCC(O)CO (stereo not shown) [Compound I-9]
PEA concentration in plasma, Day −3 ([4]; Group 3, 32 mg/kg/day): BLOQ (below the limit of quantitation (2.5 ng/mL))
PEA concentration in plasma, Day −5 ([4]; Group 3, 32 mg/kg/day): BLOQ (below the limit of quantitation (2.5 ng/mL))
PEA concentration in plasma, Day −3 ([4]; Group 4, 160 mg/kg/day): BLOQ (below the limit of quantitation (2.5 ng/mL))
PEA concentration in plasma, Day −5 ([4]; Group 4, 160 mg/kg/day): BLOQ (below the limit of quantitation (2.5 ng/mL))
PEA concentration in plasma, Day 7 [5]: BLOQ (below the limit of quantitation (2.5 ng/mL))

SMILES: CCCCCCCCCCCCCCCC(=O)NCCOC(=O)CCC(=O)OC(COC(=O)CCC)COC(=O)CCC [Compound I-16]
effect on thermal hyperalgesia induced by carrageenan ([7]; I-16 10.25 mg/kg PO (5 mg/kg equivalents of PEA), any time point (4 and 24 hours)): did not significantly reduce; also recorded: no significant effect
effect on thermal hyperalgesia induced by carrageenan ([7]; I-16 20.50 mg/kg PO, 4-hour time point, 20.5 mg/kg): significantly reduced thermal hyperalgesia; also recorded: significantly reducing thermal hyperalgesia
effect on thermal hyperalgesia induced by carrageenan ([7]; I-16 20.50 mg/kg PO, 24-hour time point): did not significantly reduce thermal hyperalgesia
overall effect on thermal hyperalgesia ([7]; I-16 10.25 and 20.50 mg/kg PO): dose- and time-dependent reduction of thermal hyperalgesia
